Assay results reported in patent publication US7781421B2, “Neuroactive 13, 24-cyclo-18, 21-dinorcholanes and structurally related pentacyclic steriods” (Washington University, priority 2003, dated 2010).

How the values were obtained:
[1] = biological target: T1, rat α1β2γ2 GABAA Receptor (Rattus norvegicus, UniProt P18508+P62813+P63138, INS375LLRMFSFK); assay: Xenopus oocyte two-electrode voltage-clamp electrophysiology; assay type: cell-based; conditions: for Oocyte electrophysiology, ratio of currents in presence/absence of compound, 10 μM: 10 μM compound co-applied with 2 μM GABA; for Oocyte electrophysiology, ratio of currents in presence/absence of compound, 10 μM / Oocyte electrophysiology, ratio of currents in presence/absence of compound, 0.1 μM / Oocyte electrophysiology, ratio of currents in presence/absence of compound, 1 μM: −70 mV; for Oocyte electrophysiology, ratio of currents in presence/absence of compound, 0.1 μM: 0.1 μM compound co-applied with 2 μM GABA; for Oocyte electrophysiology, ratio of currents in presence/absence of compound, 1 μM: 1 μM compound co-applied with 2 μM GABA; for Gating (10 μM), ratio of compound only current/2 μM GABA current: direct current gated by 10 μM compound in the absence of GABA
T1 construct: from linearized pBluescript vectors containing receptor coding regions; expressed in transfected cells; host or cells: Xenopus laevis oocytes injected with in vitro transcribed capped mRNA
Procedure, shortened: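 Oocytes injected with rat α1, β2, γ2L mRNA, voltage-clamped at −70 mV 2-5 days later in ND96. Compounds co-applied with 2 μM GABA for 20 s; peak current ratio with/without compound, n≥4 oocytes. (G): current from 10 μM compound alone, as ratio to 2 μM GABA current.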

[2] = biological target: GABAA receptor ([35S]-TBPS binding site, rat brain cortical membranes); assay: Displacement of [35S]-TBPS binding, rat brain cortical membranes; conditions: 5 μM GABA, 2 nM [35S]-TBPS; ± standard error of the means
Procedure, shortened: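 Rat cortical P2 membranes (0.5 mg/mL protein) incubated 2 h at room temperature with 2 nM [35S]-TBPS, 5 μM GABA and steroid (1 nM–10 μM) in 200 mM NaCl/50 mM potassium phosphate, pH 7.4. Filter-bound radioactivity counted; IC50 from Hill equation fit, triplicate points.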

Xenopus laevis tadpoles = assay: Tadpole loss of righting (LRR) and swimming (LSR) reflexes; assay type: in vivo; conditions: 3 h equilibration at room temperature; for EC50: Xenopus laevis, 3 h, read-out: LSR EC50 (loss of swimming response)
Procedure, shortened: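 Groups of 10 early prelimb-bud Xenopus laevis tadpoles were held for 3 h at room temperature in oxygenated Ringer's containing compound (DMSO ≤0.1%). Loss of righting was scored as failure to right within 5 sec after flipping, and loss of swimming as failure to swim when touched. EC50 came from a Hill equation fit.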

T1 sequence (P62813 28-455, stated change not applied): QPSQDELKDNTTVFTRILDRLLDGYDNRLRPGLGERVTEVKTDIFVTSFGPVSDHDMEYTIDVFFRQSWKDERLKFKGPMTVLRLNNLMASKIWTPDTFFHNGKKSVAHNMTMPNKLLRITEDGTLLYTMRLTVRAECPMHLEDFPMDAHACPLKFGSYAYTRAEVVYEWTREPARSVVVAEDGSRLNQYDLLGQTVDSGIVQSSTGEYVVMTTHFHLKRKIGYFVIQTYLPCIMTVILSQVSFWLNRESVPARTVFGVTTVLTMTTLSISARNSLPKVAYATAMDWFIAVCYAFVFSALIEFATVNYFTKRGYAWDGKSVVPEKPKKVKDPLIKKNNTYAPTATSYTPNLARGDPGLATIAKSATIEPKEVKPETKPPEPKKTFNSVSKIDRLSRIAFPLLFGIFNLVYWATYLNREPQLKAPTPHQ
T1 sequence (P63138 26-474, stated change not applied): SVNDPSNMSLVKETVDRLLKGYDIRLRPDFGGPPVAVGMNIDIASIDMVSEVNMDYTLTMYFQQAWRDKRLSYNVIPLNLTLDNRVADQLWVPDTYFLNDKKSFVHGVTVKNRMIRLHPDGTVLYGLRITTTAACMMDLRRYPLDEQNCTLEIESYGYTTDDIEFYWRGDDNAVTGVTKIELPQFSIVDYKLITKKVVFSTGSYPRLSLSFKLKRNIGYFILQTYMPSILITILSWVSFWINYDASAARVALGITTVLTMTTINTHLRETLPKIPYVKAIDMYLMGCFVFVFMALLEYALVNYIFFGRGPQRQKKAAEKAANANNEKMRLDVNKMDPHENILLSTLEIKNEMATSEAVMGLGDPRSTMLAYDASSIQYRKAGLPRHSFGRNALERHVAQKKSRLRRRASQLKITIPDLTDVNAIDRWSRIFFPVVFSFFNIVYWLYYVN
T1 sequence (P18508 with tags, fused parts or gaps INS375LLRMFSFK): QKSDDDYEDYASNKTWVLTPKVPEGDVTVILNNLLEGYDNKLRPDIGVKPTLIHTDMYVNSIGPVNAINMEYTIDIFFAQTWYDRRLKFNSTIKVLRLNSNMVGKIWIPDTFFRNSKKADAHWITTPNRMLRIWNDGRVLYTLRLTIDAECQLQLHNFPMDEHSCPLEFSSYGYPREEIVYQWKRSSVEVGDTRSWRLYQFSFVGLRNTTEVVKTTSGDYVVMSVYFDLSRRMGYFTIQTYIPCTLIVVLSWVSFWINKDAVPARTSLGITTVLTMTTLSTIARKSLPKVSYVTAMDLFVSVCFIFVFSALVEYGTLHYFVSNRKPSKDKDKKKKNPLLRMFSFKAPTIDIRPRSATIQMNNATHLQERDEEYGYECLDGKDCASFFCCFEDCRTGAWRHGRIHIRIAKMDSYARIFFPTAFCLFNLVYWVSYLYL

| Structure (SMILES) | Oocyte electrophysiology, ratio of currents in presence/absence of compound, 10 μM [1] | IC50 [2] | LRR ED50 (loss of righting response) (Xenopus laevis tadpoles) | EC50 (Xenopus laevis tadpoles) | melting point | Oocyte electrophysiology, ratio of currents in presence/absence of compound, 0.1 μM [1] | Oocyte electrophysiology, ratio of currents in presence/absence of compound, 1 μM [1] | Gating (10 μM), ratio of compound only current/2 μM GABA current [1] | LSR EC50 (loss of swimming response) (Xenopus laevis tadpoles) |
| --- | --- | --- | --- | --- | --- | --- | --- | --- | --- |
| C[C@]12CC[C@@H](O)C[C@@H]1CCC1C3CC[C@@H]4CC[C@H](C#N)C[C@]34CCC12 (stereo partly drawn) [Compound 50, (3α,5α,20S)-3-Hydroxy-13,24-cyclo-18,21-dinorcholane-23-carbonitrile] | 2.1 ± 0.2 | 482 ± 20 nM | 350 ± 70 nM | 950 ± 10 nM | 157 to 159 °C |  |  |  |  |
| C[C@]12CC[C@@H](O)C[C@@H]1CCC1C3CC[C@@H]4C(=O)CCC[C@]34CCC12 (stereo partly drawn) [Compound 2a, (3α,5α)-3-Hydroxy-13,24-cyclo-18,21-dinorcholan-20-one] |  | 514 ± 64 nM | 1360 ± 200 nM | 5450 ± 70 nM | 200 to 202 °C | 1.01 ± 0.03 | 1.44 ± 0.03 | 0 ± 0.1 |  |
| CC12CCC(O)CC1CCC1C2CCC23CCC(=O)CC2CCC13 (stereo not drawn) [Compound 3b, (3α,5β)-3-Hydroxy-13,24-cyclo-18,21-dinorcholan-22-one] | 2.65 ± 0.33 | 3230 nM | 2470 ± 530 nM | 9430 ± 60 nM | 175 to 177 °C | 0.97 ± 0.01 | 1.11 ± 0.14 | −0.10 ± 0.06 |  |
| CC12CCC(O)CC1CCC1C2CCC23CCC=CC2CCC13 (stereo not drawn) [Compound 13b, (3α,5β)-13,24-Cyclo-18,21-dinorchol-20(22)-en-3-ol] | 3.48 ± 1.01 | 484 ± 103 nM | 1280 ± 1800 nM | > 10000 nM | 168 to 169 °C | 1.44 ± 0.17 | 2.09 ± 0.35 | −0.05 ± 0.09 |  |
| CC(=O)C1=CCCC23CCC4C(CCC5CC(O)CCC54C)C2CCC13 (stereo not drawn) [Compound 83, (3α,5α)-1-[3-Hydroxy-13,24-cyclo-18,21-dinorchol-20(22)-en-20-yl]ethanone] | 1.15 ± 0.04 | 3190 nM | 7200 ± 6620 nM |  | 198 to 200 °C | 0.89 ± 0.02 | 0.86 ± 0.04 | 0.00 ± 0.00 | None @ 10 |
| COC1CCCC23CCC4C(CCC5CC(O)CCC54C)C2CCC13 [Compound 69, (3α,5α,20S)-20-Methoxy-13,24-cyclo-18,21-dinorcholan-3-ol] | 1.72 ± 0.28 | 353 ± 38 nM | None @ 10 |  | 182 to 183 °C | 0.90 ± 0.04 | 1.26 ± 0.09 | 0.00 ± 0.00 | None @ 10 |
| C[C@]12CC[C@@H](O)C[C@H]1CCC1C3CC[C@@H]4C(=O)CCC[C@]34CCC12 (stereo partly drawn) [Compound 2b, (3α,5β)-3-Hydroxy-13,24-cyclo-18,21-dinorcholan-20-one] | 1.51 ± 0.13 | 1780 nM | 940 ± 550 nM | 5480 ± 80 nM | 220 to 222 °C | 0.93 ± 0.06 | 1.12 ± 0.14 | −0.25 ± 0.21 |  |
